From patent publication US20220168431A1, “METHODS OF TREATING CANCER USING TRIMETAZIDINE-BASED COMPOUNDS” (IMBRIA PHARMACEUTICALS, INC., priority 2019, published 2022)
Several values for one entry are separate records, joined by “and”; a condition that tells them apart may be missing. Equal values may be shown once.

Experiments:
[1] = Stability of CV-8972 in aqueous solution at different concentrations and pH; format: physicochemical
Method: The stability of CV-8972 was analyzed. Aqueous samples containing CV-8972 at different concentrations and pH were incubated for various periods and analyzed.
Form A of CV-8972 were analyzed for stability in aqueous solution. Aqueous samples containing CV-8972 at different concentrations and pH were incubated for various periods and analyzed.

[2] = Stability of CV-8972 forms in various solvents, X-ray powder diffraction; format: physicochemical; conditions: batch 289-MBA-15-A (form B)
Method: The stability of CV-8972 was analyzed.
Samples from batch 289-MBA-15-A (containing form B) were added to various solvents, incubated under various conditions, and analyzed by X-ray powder diffraction.
Samples from batch 289-MBA-16 (containing forms A and B) were added to various solvents, incubated under various conditions, and analyzed by X-ray powder diffraction.
Samples from batch S-18-0030513 (containing form A) were added to various solvents, incubated under various conditions, and analyzed by X-ray powder diffraction.

[3] = system: isolated hearts after ischemia-reperfusion; assay: Ischemia-reperfusion (IR) method, cardiac function (LVDP); format: in vivo, mice
Method: (§1) FIG. 38 is a schematic of the ischemia-reperfusion (IR) method used to analyze the effects of compositions of the invention on coronary flow, cardiac function, and infarct size. […] At 20 minutes, ischemia was induced, and coronary flow was analyzed. At 50 minutes, reperfusion was initiated to restore blood flow. At 170 minutes, coronary flow and cardiac function was analyzed, and then the hearts were preserved, sectioned, and infarct size was measured by triphenyltetrazolium chloride (TTC) staining. FIG. 40 is graph of left ventricular developed pressure (LVDP) after IR. Blue bars indicate LVDP at 20 minutes, and orange bars indicate LVDP at 170 minutes.

[4] = system: isolated hearts after ischemia-reperfusion; assay: Ischemia-reperfusion (IR) method, infarct size by TTC staining; format: in vivo, mice; conditions: result in words
Method: as §1, with “staining. […]” for “staining.”, “42” for “40”, “infarct size” for “left ventricular developed pressure (LVDP)”, “TR.” for “IR. Blue bars indicate LVDP at 20 minutes, and orange bars indicate LVDP at 170 minutes.”

[5] = system: isolated hearts after ischemia-reperfusion; assay: Ischemia-reperfusion (IR) method, coronary flow; format: in vivo, mice
Method: FIG. 38 is a schematic of the ischemia-reperfusion (IR) method used to analyze the effects of compositions of the invention on coronary flow, cardiac function, and infarct size. […] At 20 minutes, ischemia was induced, and coronary flow was analyzed. At 50 minutes, reperfusion was initiated to restore blood flow. At 170 minutes, coronary flow and cardiac function was analyzed, and then the hearts were preserved, sectioned, and infarct size was measured by triphenyltetrazolium chloride (TTC) staining. FIG. 39 is a graph of coronary flow of after IR.

COc1ccc(CN2CCN(CCOC(=O)c3cccnc3)CC2)c(OC)c1OC.Cl.Cl.Cl [276-MBA-172]
Retention Time 5.6 (CV-8972 peak) ([1]; 2 mg/mL pH 6 (Form A), 1 hrs, measured pH 6.1): 97.22 | Retention Time 5.6 (CV-8972 peak) ([1]; 2 mg/mL pH 6 (Form A), 4 hrs, measured pH 6.1): 97.01 | Retention Time 5.6 (CV-8972 peak) ([1]; 2 mg/mL pH 6 (Form A), 6 hrs, measured pH 6.1): 96.51 | Retention Time 5.6 (CV-8972 peak) ([1]; 2 mg/mL pH 7 (Form A), 1 hrs, measured pH 6.8): 95.06 | Retention Time 5.6 (CV-8972 peak) ([1]; 2 mg/mL pH 7 (Form A), 4 hrs, measured pH 6.7): 93.7 | Retention Time 5.6 (CV-8972 peak) ([1]; 2 mg/mL pH 7 (Form A), 6 hrs, measured pH 6.7): 92.12 | Retention Time 5.6 (CV-8972 peak) ([1]; 2 mg/mL pH 7 (Form A), 22 hrs, measured pH 6.8): 91.07 | Retention Time 5.6 (CV-8972 peak) ([1]; 10 mg/mL pH 6 (Form A), 1 hrs, measured pH 6.8): 93.43 | Retention Time 5.6 (CV-8972 peak) ([1]; 10 mg/mL pH 6 (Form A), 4 hrs, measured pH 6.8): 91.82 | Retention Time 5.6 (CV-8972 peak) ([1]; 10 mg/mL pH 6 (Form A), 6 hrs, measured pH 6.7): 91.8 | Retention Time 5.6 (CV-8972 peak) ([1]; 10 mg/mL pH 6 (Form A), 22 hrs, measured pH 6.7): 89.66 | Retention Time 5.6 (CV-8972 peak) ([1]; 10 mg/mL pH 7 (Form A), 1 hrs, measured pH 7.2): 89.05 | Retention Time 5.6 (CV-8972 peak) ([1]; 10 mg/mL pH 7 (Form A), 4 hrs, measured pH 7.1): 86.8 | Retention Time 5.6 (CV-8972 peak) ([1]; 10 mg/mL pH 7 (Form A), 6 hrs, measured pH 7.1): 84.79

COc1ccc(CN2CCN(CCOC(=O)c3cccnc3)CC2)c(OC)c1OC.Cl.Cl.Cl [289-MBA-15-A]
Retention Time 5.6 (CV-8972 peak) ([1]; 2 mg/mL pH 6 (Form B), 1 hrs, measured pH 6.9): 95.1 | Retention Time 5.6 (CV-8972 peak) ([1]; 2 mg/mL pH 6 (Form B), 4 hrs, measured pH 6.8): 92.45 | Retention Time 5.6 (CV-8972 peak) ([1]; 2 mg/mL pH 6 (Form B), 6 hrs, measured pH 6.8): 90.65 | Retention Time 5.6 (CV-8972 peak) ([1]; 2 mg/mL pH 6 (Form B), 22 hrs, measured pH 6.7): 89.15 | Retention Time 5.6 (CV-8972 peak) ([1]; 2 mg/mL pH 7 (Form B), 1 hrs, measured pH 6.6): 95.46 | Retention Time 5.6 (CV-8972 peak) ([1]; 2 mg/mL pH 7 (Form B), 4 hrs, measured pH 6.5): 93.92 | Retention Time 5.6 (CV-8972 peak) ([1]; 10 mg/mL pH 6 (Form B), 1 hrs, measured pH 6.1): 94.81 | Retention Time 5.6 (CV-8972 peak) ([1]; 10 mg/mL pH 6 (Form B), 4 hrs, measured pH 6): 94.69 | Retention Time 5.6 (CV-8972 peak) ([1]; 10 mg/mL pH 6 (Form B), 6 hrs, measured pH 5.9): 94.39 | Retention Time 5.6 (CV-8972 peak) ([1]; 10 mg/mL pH 6 (Form B), 22 hrs, measured pH 5.9): 93.93 | Retention Time 5.6 (CV-8972 peak) ([1]; 10 mg/mL pH 7 (Form B), 1 hrs, measured pH 7.4): 86.18 | Retention Time 5.6 (CV-8972 peak) ([1]; 10 mg/mL pH 7 (Form B), 4 hrs, measured pH 7.4): 82.36 | Retention Time 5.6 (CV-8972 peak) ([1]; 10 mg/mL pH 7 (Form B), 6 hrs, measured pH 7.3): 79.37

COc1ccc(CN2CCN(CCOC(=O)c3cccnc3)CC2)c(OC)c1OC [CV-8972, 2-(4-(2,3,4-trimethoxybenzyl)piperazin-1-yl)ethyl nicotinate]
XRPD results ([2]; EtOH, CC from 60° C.): Form C + minor | XRPD results ([2]; no solvent, 100° C., 20 minutes): Form B, shifted

COc1ccc(CN2CCNCC2)c(OC)c1OC [TMZ, trimetazidine]
LVDP × HR ([3]; after 2h reperfusion, group MEAN): 6.82E+03 | LVDP × HR ([3]; after 2h reperfusion, individual hearts): 2.52E+03 and 5.15E+03 and 5.28E+03 and 4.49E+03 and 3.24E+03 and 4.31E+03 and 9.11E+03 and 1.30E+04 and 6.44E+03 and 1.77E+04 | LVDP × HR ([3]; pre-ischemia, group MEAN): 1.68E+04 | LVDP × HR ([3]; pre-ischemia, individual hearts): 1.83E+04 and 2.31E+04 and 1.08E+04 and 1.77E+04 and 2.33E+04 and 1.26E+04 and 9.82E+03 and 1.01E+04 and 1.57E+04 and 2.36E+04 | cardiac function after IR ([3]; result in words): prevented a decline in cardiac function | infarct size after IR [4]: decreased infarct size | CF170/CF20 ([5]; group MEAN, ratio 170 minutes to 20 minutes): 4.02E+01 ul/m1 | CF170/CF20 ([5]; ratio of flow at 170 minutes to flow at 20 minutes, individual hearts, TMZ 20 μM, TNF 2 μM each, TNS 20 μM each): 2.42E+01 ul/m1 and 5.87E+01 ul/m1 and 3.57E+01 ul/m1 and 3.37E+01 ul/m1 and 5.21E+01 ul/m1 and 2.73E+01 ul/m1 and 2.60E+01 ul/m1 and 6.39E+01 ul/m1
